According to patent US20060003362A1, “ENT1 transporters expressed in cancer cells” (Xenoport, Inc., priority 2004, published 2006):

Target: T1, ENT1 (Homo sapiens, UniProt Q99808)
T1 construct: expressed in transfected cells; host or cells: Xenopus oocytes injected with ENT1 cRNA
T1 sequence (Q99808 1-456): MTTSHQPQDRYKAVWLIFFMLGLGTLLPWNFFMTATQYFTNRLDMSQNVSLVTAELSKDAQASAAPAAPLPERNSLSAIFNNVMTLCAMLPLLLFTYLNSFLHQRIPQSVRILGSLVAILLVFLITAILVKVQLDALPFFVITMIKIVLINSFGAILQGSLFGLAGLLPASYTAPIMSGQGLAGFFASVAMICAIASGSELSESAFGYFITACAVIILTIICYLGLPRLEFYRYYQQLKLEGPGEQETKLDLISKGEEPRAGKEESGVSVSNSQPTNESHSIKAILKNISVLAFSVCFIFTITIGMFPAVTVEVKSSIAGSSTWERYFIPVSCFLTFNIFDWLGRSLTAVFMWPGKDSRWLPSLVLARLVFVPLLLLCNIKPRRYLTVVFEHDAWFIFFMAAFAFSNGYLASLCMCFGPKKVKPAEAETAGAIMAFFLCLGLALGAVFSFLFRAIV
Assay: Uptake of radiolabel into Xenopus oocytes expressing ENT1
Assay type: cell-based
Settings: Xenopus oocytes injected with ENT1 cRNA, 10 minutes, scintillation counting
Description: To assess transport function of a specific transporter protein, it can be desirable to clone the cDNA and express the protein in cells that have low endogenous transport activity. Human ENT1 was cloned by PCR, fully sequenced, and subcloned into plasmids that can be used for expression in mammalian cells or Xenopus oocytes. […] For expression in Xenopus oocytes, in vitro ENT1 cRNA was prepared and injected into defoliculated oocytes.
Oocytes expressing ENT1 or control oocytes not expressing ENT1 were incubated in an oocyte ringers (ND96) buffer (90 mM NaCl, 10 mM HemiNa HEPES, 2 mM KCl, 1 mM MgCl, 1.8 mM CaCl2) containing 0.5% bovine serum albumin and 3H urindine (10^6 CPM/ml) for 10 minutes. Oocytes were washed and uptake of radiolabel quantified by scintillation counting.

uptake into oocytes expressing ENT1 versus noninjected controls: higher levels
Structure (SMILES): Nc1ccn([C@@H]2O[C@H](CO)[C@@H](O)C2(F)F)c(=O)n1 [^3H-gemcitabine, gemcitabine]
